The source made the active and inactive calls.
Columns and labels:
[1] = biological target: T1, Tyrosine-protein phosphatase non-receptor type 11 (Homo sapiens, UniProt Q06124); experiment: PTPN11 enzyme inhibitors – biochemical, selectivity assay for STEP inhibitor project, dose response (AID 602367); format: functional; settings: read-out: IC50_Mean
T1 sequence (Q06124 whole entry): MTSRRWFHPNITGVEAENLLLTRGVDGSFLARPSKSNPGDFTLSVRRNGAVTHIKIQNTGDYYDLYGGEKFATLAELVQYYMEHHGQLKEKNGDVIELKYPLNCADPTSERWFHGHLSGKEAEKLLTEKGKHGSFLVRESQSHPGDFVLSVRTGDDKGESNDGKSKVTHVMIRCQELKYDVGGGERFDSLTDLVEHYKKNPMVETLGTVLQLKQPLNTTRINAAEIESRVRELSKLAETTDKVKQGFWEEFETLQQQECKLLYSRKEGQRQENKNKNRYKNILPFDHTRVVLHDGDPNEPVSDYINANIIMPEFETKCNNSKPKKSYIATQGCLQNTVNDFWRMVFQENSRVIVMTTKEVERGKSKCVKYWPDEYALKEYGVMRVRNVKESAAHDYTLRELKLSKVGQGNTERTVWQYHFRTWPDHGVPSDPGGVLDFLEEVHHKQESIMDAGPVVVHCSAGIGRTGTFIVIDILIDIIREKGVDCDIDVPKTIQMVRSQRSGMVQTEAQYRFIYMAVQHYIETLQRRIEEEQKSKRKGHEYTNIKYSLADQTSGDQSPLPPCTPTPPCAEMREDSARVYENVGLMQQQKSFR

[2] = biological target: Dual specificity protein phosphatase 3 (Homo sapiens, UniProt P51452); experiment: VHR phosphatase inhibition, dose response, selectivity assay for STEP inhibitor project, biochemical (AID 602374); format: functional; settings: read-out: IC50_Mean
[3] = biological target: T2, Tyrosine-protein phosphatase non-receptor type 5 (Homo sapiens, UniProt P54829); experiment: PTPN5 enzyme inhibition – biochemical, fluorescence intensity, uHTS hits, confirmation (AID 602372); format: functional; settings: read-out: IC50_Mean
T2 sequence (P54829 whole entry): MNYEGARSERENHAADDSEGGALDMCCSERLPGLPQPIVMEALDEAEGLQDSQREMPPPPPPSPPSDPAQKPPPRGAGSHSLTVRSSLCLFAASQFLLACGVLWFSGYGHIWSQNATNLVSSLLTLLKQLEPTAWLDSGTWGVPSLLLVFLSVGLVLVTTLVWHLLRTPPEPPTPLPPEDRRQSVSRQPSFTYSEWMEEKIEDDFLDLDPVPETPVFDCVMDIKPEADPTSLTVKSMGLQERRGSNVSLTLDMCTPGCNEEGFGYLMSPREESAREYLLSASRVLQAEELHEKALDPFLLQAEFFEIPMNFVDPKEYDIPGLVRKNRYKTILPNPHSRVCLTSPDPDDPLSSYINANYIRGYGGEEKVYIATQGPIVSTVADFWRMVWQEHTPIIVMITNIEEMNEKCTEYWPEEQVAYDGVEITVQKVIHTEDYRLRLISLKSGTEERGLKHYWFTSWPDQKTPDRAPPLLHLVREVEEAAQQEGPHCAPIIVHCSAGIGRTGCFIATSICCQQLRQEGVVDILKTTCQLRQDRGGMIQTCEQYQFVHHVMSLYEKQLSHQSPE

[4] = biological target: T3, Tyrosine-protein phosphatase non-receptor type 22 (Homo sapiens, UniProt Q9Y2R2); experiment: lymphoid phosphatase LYP inhibitors – biochemical, selectivity assay for STEP inhibitor project, dose response (AID 624241); format: functional
T3 sequence (Q9Y2R2 whole entry): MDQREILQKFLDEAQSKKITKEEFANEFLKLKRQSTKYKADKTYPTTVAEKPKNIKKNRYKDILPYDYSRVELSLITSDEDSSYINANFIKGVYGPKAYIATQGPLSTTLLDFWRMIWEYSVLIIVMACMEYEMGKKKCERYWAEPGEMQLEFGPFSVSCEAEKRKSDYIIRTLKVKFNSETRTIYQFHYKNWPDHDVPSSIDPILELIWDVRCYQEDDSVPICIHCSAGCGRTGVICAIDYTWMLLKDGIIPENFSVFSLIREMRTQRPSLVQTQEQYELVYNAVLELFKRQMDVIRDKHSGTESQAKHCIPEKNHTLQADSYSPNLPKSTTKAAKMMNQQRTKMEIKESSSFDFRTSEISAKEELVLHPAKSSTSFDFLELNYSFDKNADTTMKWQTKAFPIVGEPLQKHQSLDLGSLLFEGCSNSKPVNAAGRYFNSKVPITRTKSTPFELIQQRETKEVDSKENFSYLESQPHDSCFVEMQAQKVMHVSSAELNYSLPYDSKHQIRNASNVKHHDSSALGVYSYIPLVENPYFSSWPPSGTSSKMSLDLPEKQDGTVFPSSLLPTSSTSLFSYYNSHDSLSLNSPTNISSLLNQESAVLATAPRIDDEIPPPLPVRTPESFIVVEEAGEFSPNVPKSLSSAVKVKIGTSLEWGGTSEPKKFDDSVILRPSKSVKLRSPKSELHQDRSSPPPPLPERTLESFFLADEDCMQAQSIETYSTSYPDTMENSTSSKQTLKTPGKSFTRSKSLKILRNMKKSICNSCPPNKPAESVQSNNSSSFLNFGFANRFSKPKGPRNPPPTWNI

[5] = cells; format: functional, cell-based
[6] = biological target: T4, Trace amine-associated receptor 1 (Homo sapiens, UniProt Q96RJ0); experiment: Fluorescence-based cell-based high throughput dose response assay to identify agonists of the human trace amine associated receptor 1 (TAAR1).; format: functional
T4 sequence (Q96RJ0 whole entry): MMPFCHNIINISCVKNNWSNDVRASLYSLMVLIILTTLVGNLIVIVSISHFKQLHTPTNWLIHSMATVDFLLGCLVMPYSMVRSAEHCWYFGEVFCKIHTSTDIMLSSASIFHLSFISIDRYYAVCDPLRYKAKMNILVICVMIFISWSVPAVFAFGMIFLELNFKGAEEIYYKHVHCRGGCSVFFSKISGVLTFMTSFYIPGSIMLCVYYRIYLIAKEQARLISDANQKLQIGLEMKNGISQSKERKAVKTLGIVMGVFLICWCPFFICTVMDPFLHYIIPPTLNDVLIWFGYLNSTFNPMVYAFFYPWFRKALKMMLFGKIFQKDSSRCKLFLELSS

[7] = cells; format: functional, cell-based; remark: listed apart in the source
[8] = biological target: T5, Short transient receptor potential channel 4 (Mus musculus, UniProt Q9QUQ5); experiment: calcium entry via TRPC4 opening agents – cell-based, HEK293 TRPC4/mu-opioid, Fluo-4 calcium, dose response (AID 434937); format: functional
T5 sequence (Q9QUQ5 whole entry): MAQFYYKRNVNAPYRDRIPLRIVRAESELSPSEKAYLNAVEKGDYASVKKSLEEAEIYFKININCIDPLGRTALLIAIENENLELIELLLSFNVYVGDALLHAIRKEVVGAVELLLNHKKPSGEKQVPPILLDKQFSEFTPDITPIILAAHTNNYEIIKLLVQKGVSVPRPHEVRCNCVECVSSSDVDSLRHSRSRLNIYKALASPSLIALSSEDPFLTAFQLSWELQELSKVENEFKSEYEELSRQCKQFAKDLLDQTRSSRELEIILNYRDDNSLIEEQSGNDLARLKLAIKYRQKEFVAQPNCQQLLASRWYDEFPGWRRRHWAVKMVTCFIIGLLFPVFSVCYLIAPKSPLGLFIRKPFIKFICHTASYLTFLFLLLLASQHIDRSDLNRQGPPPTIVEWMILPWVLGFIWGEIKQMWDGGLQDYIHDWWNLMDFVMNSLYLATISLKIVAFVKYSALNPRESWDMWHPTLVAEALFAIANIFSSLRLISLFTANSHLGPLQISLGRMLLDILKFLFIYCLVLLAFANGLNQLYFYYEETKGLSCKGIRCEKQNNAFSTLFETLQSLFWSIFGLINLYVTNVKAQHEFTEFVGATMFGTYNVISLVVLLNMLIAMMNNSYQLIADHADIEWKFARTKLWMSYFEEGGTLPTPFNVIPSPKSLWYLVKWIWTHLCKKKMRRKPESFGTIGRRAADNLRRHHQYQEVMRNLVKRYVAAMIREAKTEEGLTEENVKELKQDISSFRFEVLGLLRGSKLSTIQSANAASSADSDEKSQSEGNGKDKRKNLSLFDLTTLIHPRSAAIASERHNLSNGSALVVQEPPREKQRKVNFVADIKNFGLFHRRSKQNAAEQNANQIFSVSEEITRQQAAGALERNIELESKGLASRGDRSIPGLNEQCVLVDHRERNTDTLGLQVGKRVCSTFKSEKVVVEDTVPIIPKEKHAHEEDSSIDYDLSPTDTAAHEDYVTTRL

[9] = biological target: T4, Trace amine-associated receptor 1; experiment: Counterscreen for agonists of the human trace amine associated receptor 1 (hTAAR1): Fluorescence-based cell-based high throughput dose response assay to identify hTAAR1 agonist that also desensitize TAAR1 receptor response.; format: functional
[10] = biological target: Long-chain-fatty-acid--AMP ligase FadD28 (Mycobacterium tuberculosis, UniProt P9WQ59); experiment: Fluorescence polarization aasay to screen for inhibitors that compete for the binding of FadD28 to a bisubstrate Measured in Biochemical System Using Plate Reader - 2147-01_Inhibitor_Dose_CherryPick_Activity.; format: functional, Mycobacterium tuberculosis H37Rv
[11] = biological target: Galanin receptor type 3 (Homo sapiens, UniProt O60755); experiment: Fluorescence-based cell-based primary high throughput dose response assay to identify antagonists of the Galanin Receptor 3 (GalR3).; format: functional
[12] = cells; format: functional, cell-based; settings: HEK-CNG
[13] = system: H9c2; experiment: cells; format: functional, cell-based; settings: Rattus norvegicus, H9c2, Myocardium;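 further: confirmatory concentration-response retest of ultra-high-throughput screening hits for modulation of myocardial damage; cell death induced by hydrogen peroxide oxidative stress; compound pretreatment for 60 min then peroxide exposure for 2 h; potency is for protecting the cells against peroxide damage rather than for killing them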
[14] = biological target: Major prion protein (Homo sapiens, UniProt P04156); format: functional, cell-based
[15] = biological target: T6, Beta-lactamase (Pseudomonas aeruginosa, UniProt Q79MP6); experiment: […] counterscreen for selective VIM-2 inhibitors: dose response biochemical high throughput screening assay to identify inhibitors of IMP-1 metallo-beta-lactamase.
[16] = biological target: T6, Beta-lactamase; experiment: inhibition of IMP-1 beta-lactamase activity – biochemical, epi-absorbance, selectivity assay for VIM-2 inhibitor project, dose response (AID 1920)
[17] = cells
[18] = biological target: Beta-lactamase (Salmonella choleraesuis (strain SC-B67), UniProt Q5J463); experiment: Epi-absorbance-based counterscreen for selective VIM-2 inhibitors: dose response biochemical high throughput screening assay to identify inhibitors of TEM-1 serine-beta-lactamase.
[19] = biological target: T7, Methionyl-tRNA synthetase, putative (Trypanosoma brucei brucei, UniProt Q38C91); format: functional, Trypanosoma brucei brucei strain 927/4 GUTat10.1
T7 sequence (Q38C91 whole entry): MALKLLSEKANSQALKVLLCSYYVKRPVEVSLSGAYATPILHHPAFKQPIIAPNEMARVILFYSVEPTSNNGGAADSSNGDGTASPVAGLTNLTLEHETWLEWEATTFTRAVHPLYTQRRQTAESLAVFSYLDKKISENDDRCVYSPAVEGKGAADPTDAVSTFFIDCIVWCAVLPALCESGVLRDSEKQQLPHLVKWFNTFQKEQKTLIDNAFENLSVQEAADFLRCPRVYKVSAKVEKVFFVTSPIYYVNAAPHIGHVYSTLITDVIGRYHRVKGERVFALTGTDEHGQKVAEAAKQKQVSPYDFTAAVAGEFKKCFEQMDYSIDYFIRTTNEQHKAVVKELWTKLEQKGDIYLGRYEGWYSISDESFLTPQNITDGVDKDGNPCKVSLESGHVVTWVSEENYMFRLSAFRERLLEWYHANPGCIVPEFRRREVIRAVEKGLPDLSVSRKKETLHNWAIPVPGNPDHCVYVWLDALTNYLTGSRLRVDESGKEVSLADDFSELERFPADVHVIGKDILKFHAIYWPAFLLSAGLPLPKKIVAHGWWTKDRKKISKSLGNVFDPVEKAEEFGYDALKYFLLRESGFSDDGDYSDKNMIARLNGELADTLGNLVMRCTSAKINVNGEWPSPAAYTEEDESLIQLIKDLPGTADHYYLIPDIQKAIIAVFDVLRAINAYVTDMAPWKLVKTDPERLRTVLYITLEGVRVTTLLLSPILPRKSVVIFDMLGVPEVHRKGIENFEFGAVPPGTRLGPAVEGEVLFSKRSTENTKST

[20] = biological target: T7, Methionyl-tRNA synthetase, putative; format: functional, Trypanosoma brucei brucei strain 927/4 GUTat10.1; remark: listed apart in the source
[21] = Counterscreen for inhibitors of Trypanosoma brucei methionyl tRNA synthetase (MetRS): Luminescence-based cell-based high throughput dose response assay to identify compounds that are cytotoxic to Jurkat human T lymphocyte cells.; format: functional

COc1ccc(NC(S)=NCCN2CCC(C)CC2)cc1Cl
IC50 [1]: 0.999 µM (active) | IC50 [2]: 0.72 µM (active) | IC50 [3]: 11.2 µM (active) | IC50 [4]: 43.9 µM (inactive)

CCOC(=O)C1CCCN(C(c2ccccn2)c2c(C)[nH]c3ccccc23)C1 (configuration not stated)
EC50 [5]: > 29.9 µM (inactive) | EC50 [6]: 22.3 µM (inactive) | IC50 [7]: > 29.9 µM (inactive) | EC50 [8]: 5.31 µM (active) | IC50 [9]: 2.65 µM (active)

Cc1noc(NS(=O)(=O)c2ccc(NC(=O)/C=C/c3ccc(C(C)C)cc3)cc2)c1C
AC50 [10]: 30.2 µM (active)

Oc1nc2cccnc2c2ccsc12
IC50 [11]: > 29.9 µM (inactive) | EC50 [12]: > 29.9 µM (inactive) | IC50 [13]: > 79 µM (inactive)

O=[N+]([O-])C(=C1SCCS1)C(=C(Cl)Cl)N1CCCCC1
AC50 [10]: > 100 µM (inactive)

O=C(O)c1ccccc1Sc1ncnc2sc3c(c12)CCC3
IC50 [14]: 7.05 µM (active) | IC50 [15]: > 59.6 µM (inactive) | IC50 [16]: > 59.6 µM (inactive) | IC50 [17]: > 138 µM (inactive) | IC50 [18]: > 59.6 µM (inactive)

COc1ccc(/C=C2\SC(=O)N=C2N)cc1
IC50 [19]: 119 µM (inactive) | IC50 [20]: 7.57 µM (active) | IC50 [21]: 83.4 µM (inactive)

OC(c1ccc(Cl)c(Cl)c1)c1nc(-c2ccc(Cl)cc2)c[nH]1 (configuration not stated)
IC50 [19]: 7.79 µM (active) | IC50 [20]: 4.26 µM (active) | IC50 [21]: 51.5 µM (inactive)

COC(=O)[C@]12CCCCC=C1N(Cc1cccc3ccccc13)C(=O)[C@H](CC(=O)NCc1ccc(OC)c(OC)c1)C2
IC50 [11]: > 29.9 µM (inactive) | EC50 [12]: > 29.9 µM (inactive)
